Drawing on patent US20220153746A1, “NITROGEN OXIDE-DONATING PDE-5 AND/OR PDE-6 INHIBITOR COMPOUNDS, AND USES THEREOF” (ILDONG PHARMACEUTICAL CO., LTD., priority 2020, published 2022), this text covers IC50 for 18 molecules.

One experiment has as its target human PDE-6C (Homo sapiens, UniProt P51160). Briefly: Human PDE-6C inhibition assay (fluorescence polarization, FAM-cGMP). Format: biochemical. The conditions noted are these: read-out: IC50 (μM) PDE6C. A general note: In fluorescence polarisation assays a small probe gives low polarisation when free and higher when bound to something large.
The next experiment has as its target human PDE-5A1 (Homo sapiens, UniProt O76074). Briefly: Human PDE-5A1 inhibition assay (fluorescence polarization, FAM-cGMP). Type of experiment: biochemical. The conditions noted are these: read-out: IC50 (μM) PDE5A1.

Chain of human PDE-6C (P51160 whole entry): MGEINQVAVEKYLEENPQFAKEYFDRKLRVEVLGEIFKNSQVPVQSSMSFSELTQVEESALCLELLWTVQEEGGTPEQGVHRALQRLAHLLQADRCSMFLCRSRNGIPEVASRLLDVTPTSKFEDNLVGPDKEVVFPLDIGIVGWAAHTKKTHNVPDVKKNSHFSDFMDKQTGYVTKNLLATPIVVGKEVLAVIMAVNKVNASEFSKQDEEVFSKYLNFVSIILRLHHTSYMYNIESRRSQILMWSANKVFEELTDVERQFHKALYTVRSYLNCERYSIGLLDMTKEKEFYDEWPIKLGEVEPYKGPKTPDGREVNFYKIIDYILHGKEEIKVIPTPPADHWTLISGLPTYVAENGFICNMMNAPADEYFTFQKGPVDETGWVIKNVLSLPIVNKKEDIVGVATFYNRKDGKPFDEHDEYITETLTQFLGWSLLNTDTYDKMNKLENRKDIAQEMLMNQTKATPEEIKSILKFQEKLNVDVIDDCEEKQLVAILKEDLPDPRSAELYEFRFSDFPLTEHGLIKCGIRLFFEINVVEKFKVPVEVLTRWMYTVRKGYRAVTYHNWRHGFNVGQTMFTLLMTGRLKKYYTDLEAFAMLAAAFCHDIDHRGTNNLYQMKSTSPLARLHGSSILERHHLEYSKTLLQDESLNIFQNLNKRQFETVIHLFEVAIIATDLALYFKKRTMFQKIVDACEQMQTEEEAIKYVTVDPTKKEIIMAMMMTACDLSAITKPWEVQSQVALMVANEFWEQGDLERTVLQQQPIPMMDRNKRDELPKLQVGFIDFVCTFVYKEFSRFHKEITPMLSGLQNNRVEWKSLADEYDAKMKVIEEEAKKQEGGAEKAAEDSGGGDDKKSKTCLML

By IC50 is commonly meant the concentration needed to halve the response being measured. As to `CCCc1nn(C)c2c(=O)[nH]c(-c3cc(S(=O)(=O)N4CC(NCCO)C4)ccc3OCC)nc12` [Compound 9, 5-(2-ethoxy-5-((3-((2-hydroxyethyl)amino)azetidin-1-yl)sulfonyl)phenyl)-1-methyl-3-propyl-1,6-dihydro-7H-pyrazolo[4,3-d]pyrimidin-7-one], the IC50 at human PDE-6C and at human PDE-5A1 was 0.01 to 0.1 µM throughout.
On to `CCCc1nn(C)c2c(=O)[nH]c(-c3cc(S(=O)(=O)N4CC(NCCCCO)C4)ccc3OCC)nc12` [Compound 11, 5-(2-ethoxy-5-((3-((4-hydroxybutyl)amino)azetidin-1-yl)sulfonyl)phenyl)-1-methyl-3-propyl-1,6-dihydro-7H-pyrazolo[4,3-d]pyrimidin-7-one], for which the IC50 at human PDE-6C and at human PDE-5A1 was 0.01 to 0.1 µM throughout.
With `CCCc1nn(C)c2c(=O)[nH]c(-c3cc(S(=O)(=O)N4CC(N(C)CCO)C4)ccc3OCC)nc12` [Compound 12, 5-(2-ethoxy-5-((3-((2-hydroxyethyl)(methyl)amino)azetidin-1-yl)sulfonyl)phenyl)-1-methyl-3-propyl-1,6-dihydro-7H-pyrazolo[4,3-d]pyrimidin-7-one], the IC50 at human PDE-6C and at human PDE-5A1 was less than 0.01 µM each time.
Take `CCCc1nn(C)c2c(=O)[nH]c(-c3cc(S(=O)(=O)N4CC(N(C)CCCO)C4)ccc3OCC)nc12` [Compound 13, 5-(2-ethoxy-5-((3-((3-hydroxypropyl)(methyl)amino)azetidin-1-yl)sulfonyl)phenyl)-1-methyl-3-propyl-1,6-dihydro-7H-pyrazolo[4,3-d]pyrimidin-7-one]: the figures for the IC50 at human PDE-6C and on human PDE-5A1 were 0.01 to 0.1 µM and less than 0.01 µM, respectively.
For the molecule `CCCc1nn(C)c2c(=O)[nH]c(-c3cc(S(=O)(=O)N4CC(N(C)CCCCO)C4)ccc3OCC)nc12` [Compound 14, 5-(2-ethoxy-5-((3-((4-hydroxybutyl)(methyl)amino)azetidin-1-yl)sulfonyl)phenyl)-1-methyl-3-propyl-1,6-dihydro-7H-pyrazolo[4,3-d] pyrimidin-7-one], the IC50 on human PDE-6C and at human PDE-5A1 was less than 0.01 µM throughout.
With `CCCc1nn(C)c2c(=O)[nH]c(-c3cc(S(=O)(=O)N4CC(O[N+](=O)[O-])C4)ccc3OCC)nc12` [Compound 15, 1-((4-ethoxy-3-(1-methyl-7-oxo-3-propyl-6,7-dihydro-1H-pyrazolo[4,3-d]pyrimidin-5-yl)phenyl)sulfonyl) azetidin-3-yl nitrate], the IC50 at human PDE-6C and on human PDE-5A1 was 0.01 to 0.1 µM each time.
Take `CCCc1nn(C)c2c(=O)[nH]c(-c3cc(S(=O)(=O)N4CC(CO[N+](=O)[O-])C4)ccc3OCC)nc12` [Compound 16, (1-((4-ethoxy-3-(1-methyl-7-oxo-3-propyl-6,7-dihydro-1H-pyrazolo[4,3-d]pyrimidin-5-yl)phenyl)sulfonyl)azetidin-3-yl)methyl nitrate]: the IC50 at human PDE-6C is 0.01 to 0.1 µM; on human PDE-5A1, less than 0.01 µM.
For `CCCc1nn(C)c2c(=O)[nH]c(-c3cc(S(=O)(=O)NC4CN(CCO[N+](=O)[O-])C4)ccc3OCC)nc12` [Compound 19, 2-(3-((4-ethoxy-3-(1-methyl-7-oxo-3-propyl-6,7-dihydro-1H-pyrazolo[4,3-d]pyrimidin-5-yl)phenyl)sulfonamido)azetidin-1-yl)ethyl nitrate], the IC50 on human PDE-6C and at human PDE-5A1 was less than 0.01 µM in each case.
As for `CCCc1nn(C)c2c(=O)[nH]c(-c3cc(S(=O)(=O)NC4CN(CCCO[N+](=O)[O-])C4)ccc3OCC)nc12` [Compound 20, 3-(3-((4-ethoxy-3-(1-methyl-7-oxo-3-propyl-6,7-dihydro-1H-pyrazolo[4,3-d]pyrimidin-5-yl)phenyl)sulfonamido)azetidin-1-yl)propyl nitrate], the figures for the IC50 at human PDE-6C and on human PDE-5A1 were less than 0.01 µM and 0.01 to 0.1 µM, respectively.
The matching figures for `CCCc1nn(C)c2c(=O)[nH]c(-c3cc(S(=O)(=O)N4CC(NCCO[N+](=O)[O-])C4)ccc3OCC)nc12` [Compound 21, 2-((1-((4-ethoxy-3-(1-methyl-7-oxo-3-propyl-6,7-dihydro-1H-pyrazolo[4,3-d]pyrimidin-5-yl)phenyl)sulfonyl)azetidin-3-yl)amino)ethyl nitrate]: less than 0.01 µM and less than 0.01 µM.
As for `CCCc1nn(C)c2c(=O)[nH]c(-c3cc(S(=O)(=O)N4CC(N(C)CCO[N+](=O)[O-])C4)ccc3OCC)nc12` [Compound 23, 2-((1-((4-ethoxy-3-(1-methyl-7-oxo-3-propyl-6,7-dihydro-1H-pyrazolo[4,3-d]pyrimidin-5-yl)phenyl)sulfonyl)azetidin-3-yl)(methyl)amino)ethyl nitrate], the IC50 on human PDE-6C and on human PDE-5A1 was less than 0.01 µM in each case.
As to `CCCc1nn(C)c2c(=O)[nH]c(-c3cc(S(=O)(=O)N4CC(N(C)CCCO[N+](=O)[O-])C4)ccc3OCC)nc12` [Compound 24, 3-((1-((4-ethoxy-3-(1-methyl-7-oxo-3-propyl-6,7-dihydro-1H-pyrazolo[4,3-d]pyrimidin-5-yl)phenyl)sulfonyl)azetidin-3-yl)(methyl)amino)propyl nitrate], the values for the IC50 at human PDE-6C and at human PDE-5A1 were less than 0.01 µM and 0.01 to 0.1 µM, respectively.
The matching figures for `CCCc1nn(C)c2c(=O)[nH]c(-c3cc(S(=O)(=O)N4CC(OCCO)C4)ccc3OCC)nc12` [Compound 25, 5-(2-ethoxy-5-((3-(2-hydroxyethoxy)azetidin-1-yl)sulfonyl)phenyl)-1-methyl-3-propyl-1,6-dihydro-7H-pyrazolo[4,3-d] pyrimidin-7-one]: 0.01 to 0.1 µM and 0.01 to 0.1 µM.
As to `CCCc1nn(C)c2c(=O)[nH]c(-c3cc(S(=O)(=O)N4CC(OCCCO)C4)ccc3OCC)nc12` [Compound 26, 5-(2-ethoxy-5-((3-(3-hydroxypropoxy)azetidin-1-yl)sulfonyl)phenyl)-1-methyl-3-propyl-1,6-dihydro-7H-pyrazolo[4,3-d]pyrimidin-7-one], the IC50 at human PDE-6C and at human PDE-5A1 was 0.01 to 0.1 µM throughout.
As to `CCCc1nn(C)c2c(=O)[nH]c(-c3cc(S(=O)(=O)N4CC(OCCCCO)C4)ccc3OCC)nc12` [Compound 27, 5-(2-ethoxy-5-((3-(4-hydroxybutoxy)azetidin-1-yl)sulfonyl)phenyl)-1-methyl-3-propyl-1,6-dihydro-7H-pyrazolo[4,3-d]pyrimidin-7-one], the figures for the IC50 on human PDE-6C and on human PDE-5A1 were less than 0.01 µM and 0.01 to 0.1 µM, respectively.
The matching figures for `CCCc1nn(C)c2c(=O)[nH]c(-c3cc(S(=O)(=O)N4CC(CN5CC(CO)C5)C4)ccc3OCC)nc12` [Compound 28, 5-(2-ethoxy-5-((3-((3-(hydroxymethyl)azetidin-1-yl)methyl)azetidin-1-yl)sulfonyl)phenyl)-1-methyl-3-propyl-1,6-dihydro-7H-pyrazolo[4,3-d] pyrimidin-7-one]: 0.01 to 0.1 µM and 0.01 to 0.1 µM.
With `CCCc1nn(C)c2c(=O)[nH]c(-c3cc(S(=O)(=O)N4CC(CN5CC(CCO)C5)C4)ccc3OCC)nc12` [Compound 29, 5-(2-ethoxy-5-((3-((3-(2-hydroxyethyl)azetidin-1-yl)methyl)azetidin-1-yl)sulfonyl)phenyl)-1-methyl-3-propyl-1,6-dihydro-7H-pyrazolo[4,3-d]pyrimidin-7-one], the IC50 at human PDE-6C and on human PDE-5A1 was 0.01 to 0.1 µM throughout.
In the case of `CCCc1nn(C)c2c(=O)[nH]c(-c3cc(S(=O)(=O)N4CC(N(CCCO)CCCO)C4)ccc3OCC)nc12` [Compound 30, 5-(5-((3-(bis(3-hydroxypropyl)amino)azetidin-1-yl)sulfonyl)-2-ethoxyphenyl)-1-methyl-3-propyl-1,6-dihydro-7H-pyrazolo[4,3-d]pyrimidin-7-one], the IC50 at human PDE-6C and on human PDE-5A1 was less than 0.01 µM in each case.
